Data taken from patent US6541486B1, “Bis-benzimidazole compounds and analogs thereof for inhibiting cell death” (Elan Pharma International Ltd., priority 1999, dated 2003).

Key:
[1] = test system: Oxygen/Glucose Deprived RGCs (retinal ganglion cells); assay: Protection of oxygen/glucose deprived (OGD) retinal ganglion cells, EC50; details: overall judgement
[2] = test system: OGD cells (retinal ganglion cells); assay: Increase in survival of OGD cells at fixed concentrations (similar assay); format: cell-based, rat

For O=[N+]([O-])c1cccc2[nH]c(Cc3nc4c([N+](=O)[O-])cccc4[nH]3)nc12 [SNX 901, 4,4′-dinitro*], which “Effectiveness in protecting OGD RGCs (in words, from Tables 5 and 6)” value [1] is on record?
The value was “more effective overall than the unsubstituted compound”.

And the “Percent Increase in Survival over OGD Control Cells” value (“Percent Increase in Survival” below) ([2]; Concn 0.01 μM)?
The value was “++ (50%-100% increase)”.

And the “Percent Increase in Survival” value ([2]; Concn 0.1 μM)?
Its value is “++ (50%-100% increase)”.

What about the “Percent Increase in Survival” value ([2]; Concn 10 μM) of the same compound?
The value was “+++ (>100% increase)”.

And the “Percent Increase in Survival” value ([2]; Concn .1 μM)?
Its value is “+++ (>100% increase)”.
